According to paper PMC13267113 (npj Drug Discovery, 2025):

Key:
CHO-K1 (hamster, ovary) = assay: MTT cytotoxicity CHO-K1; type: cell-based; settings: CHO-K1, 72 h, n = 3
Description: (§1) All cell types were cultivated at 37 °C with 5% CO2. HepG2, HEK293, HCT116, CHO-K1, HeLa-CCL-2 and Huh-7.5 were purchased from ATCC. The respective cell media (Gibco) were supplemented with 10% FBS (Gibco) before usage. Cells were used between passages #5 and #30. To obtain biological repeats, cells were split separately for at least two passages.
(§2) Cells were washed with PBS and 0.5 mL trypsin was added. Afterwards, cells were incubated for 5 min before adding 10 mL medium containing 10% FBS. Per well, 120 µL cell suspension (5 × 10^4 cells/mL) was seeded in transparent 96-well cell bind plates and incubated for 2 h (37 °C, 5% CO2). A dilution series (1:3) of test compounds was prepared in respective media containing 10% FBS and added (60 µL) to the prepared cell plate. Cells were incubated for a further 72 h (37 °C, 5% CO2). Next, 20 µL MTT (5 mg/mL in PBS) was added to each well and incubated for 2 h (37 °C, 5% CO2). The wells were emptied and 100 µL isopropanol/10 N HCl (1000:4) per well was added.
(§3) The plates were analyzed by measuring the absorbance at 570 nm (plate reader Infinite® 200 Pro, Tecan). After normalization of data to the respective solvent controls, the calculated percentage of growth inhibition was plotted using GraphPad Prism software (version 10.0.2).

HeLa (human, cervix) = assay: MTT cytotoxicity HeLa; type: cell-based; settings: 72 h, n = 3
Description: as §1, §2, §3

HEK293 (human, kidney) = assay: MTT cytotoxicity HEK293; type: cell-based; settings: HEK293, MTT, 72 h, n = 3, read-out: IC50 HEK293 (human, kidney)
Description: as §1, §2, §3

HepG2 (human, liver) = assay: MTT cytotoxicity HepG2; type: cell-based; settings: 72 h, n = 3
Description: as §1, §2, §3

[1] = biological target: T1, human DNA topoisomerase IIα (TOP2A) (Homo sapiens, UniProt P11388); assay: human topoisomerase II alpha decatenation assay; type: biochemical; settings: n = 3, read-out: IC50 against TOP2A
T1 construct: purchased Inspiralis
T1 sequence (P11388 whole entry): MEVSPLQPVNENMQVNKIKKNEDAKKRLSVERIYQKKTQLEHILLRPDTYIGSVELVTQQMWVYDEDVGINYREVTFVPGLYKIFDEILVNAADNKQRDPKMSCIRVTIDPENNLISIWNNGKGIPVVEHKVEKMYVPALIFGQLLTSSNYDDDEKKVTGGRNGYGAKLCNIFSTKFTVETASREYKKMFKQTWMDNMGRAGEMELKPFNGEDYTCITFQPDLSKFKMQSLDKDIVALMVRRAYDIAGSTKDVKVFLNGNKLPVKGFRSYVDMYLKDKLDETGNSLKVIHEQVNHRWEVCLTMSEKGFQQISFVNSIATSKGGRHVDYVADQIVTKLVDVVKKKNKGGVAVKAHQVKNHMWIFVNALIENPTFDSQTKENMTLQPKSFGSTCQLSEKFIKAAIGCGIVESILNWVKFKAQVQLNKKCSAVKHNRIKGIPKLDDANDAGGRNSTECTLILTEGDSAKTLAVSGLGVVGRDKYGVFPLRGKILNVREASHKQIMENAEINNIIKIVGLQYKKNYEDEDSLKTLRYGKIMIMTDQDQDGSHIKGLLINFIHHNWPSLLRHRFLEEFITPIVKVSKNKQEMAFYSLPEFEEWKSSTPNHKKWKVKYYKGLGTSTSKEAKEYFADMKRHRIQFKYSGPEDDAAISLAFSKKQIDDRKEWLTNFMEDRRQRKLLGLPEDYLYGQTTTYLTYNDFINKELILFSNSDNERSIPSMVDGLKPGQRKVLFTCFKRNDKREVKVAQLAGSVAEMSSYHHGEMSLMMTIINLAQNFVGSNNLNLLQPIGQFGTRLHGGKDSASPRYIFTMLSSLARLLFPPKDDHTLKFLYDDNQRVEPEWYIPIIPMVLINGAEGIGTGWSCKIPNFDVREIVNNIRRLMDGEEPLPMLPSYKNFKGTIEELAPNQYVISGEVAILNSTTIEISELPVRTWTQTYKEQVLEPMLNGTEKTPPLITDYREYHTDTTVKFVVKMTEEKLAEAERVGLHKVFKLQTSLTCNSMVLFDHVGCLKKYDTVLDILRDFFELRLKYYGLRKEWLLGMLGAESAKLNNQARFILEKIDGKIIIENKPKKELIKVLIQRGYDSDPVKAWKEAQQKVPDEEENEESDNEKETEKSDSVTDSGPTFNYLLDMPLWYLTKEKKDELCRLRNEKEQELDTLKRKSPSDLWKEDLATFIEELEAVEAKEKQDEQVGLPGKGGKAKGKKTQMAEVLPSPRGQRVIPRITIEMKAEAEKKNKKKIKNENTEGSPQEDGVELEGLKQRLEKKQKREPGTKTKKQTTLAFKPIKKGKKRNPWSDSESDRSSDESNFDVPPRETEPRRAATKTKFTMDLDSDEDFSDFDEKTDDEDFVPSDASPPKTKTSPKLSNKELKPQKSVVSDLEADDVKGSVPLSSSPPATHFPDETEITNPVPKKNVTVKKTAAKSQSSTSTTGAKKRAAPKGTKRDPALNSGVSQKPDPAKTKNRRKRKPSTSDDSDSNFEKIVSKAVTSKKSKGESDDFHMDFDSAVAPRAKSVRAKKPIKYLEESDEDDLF
Description: Inhibition of topoisomerase activity was examined using the human topoisomerase II alpha decatenation assay kit (Inspiralis) as indicated by the manufacturer. Briefly, a compound dilution series was prepared in DMSO. Water, dilution buffer, assay buffer, plasmid and enzyme were mixed with the compound solution and incubated at 37 °C for 30 min. A positive control (100% activity) was prepared without the compound, and a negative control (0% activity) was prepared without the compound and the enzyme. The reaction was stopped by adding gSTEB-buffer and chloroform/isoamylalcohol (24:1 v/v). The samples were vortexed and centrifuged before running gel electrophoresis. The gel was stained with ethidium bromide and imaged using a Fusion Fx gel imager (Vilber Lourmat). Subsequent analysis was done using ImageJ and GraphPad Prism (Version 10.0.2).

`CO[C@H](C(N)=O)[C@H](NC(=O)c1ccc(NC(=O)c2ccc(C#N)cc2)cc1)C(=O)Nc1ccc(C(=O)Nc2ccc(C(=O)Nc3ccc(C(=O)O)cc3)c(O)c2OC(C)C)cc1` [CN-861-2] was tested, and the IC50 (CHO-K1 (hamster, ovary)) was > 20 µM, the IC50 (HeLa (human, cervix)) was > 37 µM and the IC50 (HEK293 (human, kidney)) was > 20 µM. For the same compound, the IC50 (HepG2 (human, liver)) was > 20 µM and the IC50 [1] was 6.26 ± 4.69 µM.
